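48-hour exposure; five concentrations; linearly interpolated endpoints. TGI: total growth inhibition.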
Key:
Experiment in all cases: NCI tumour cell line growth inhibition, 48 h
KM12 colon = test system: KM12 colon
HT29 colon = test system: HT29 colon
SF-539 CNS = test system: SF-539 CNS
SN12K1 renal = test system: SN12K1 renal
OVCAR-3 ovarian = test system: OVCAR-3 ovarian
HOP-18 NSCLC = test system: HOP-18 NSCLC
UO-31 renal = test system: UO-31 renal
NCI-H23 lung = test system: NCI-H23 lung
A498 renal = test system: A498 renal
XF 498 CNS = test system: XF 498 CNS
DMS 273 small cell lung = test system: DMS 273 small cell lung
NCI/ADR-RES ovarian = test system: NCI/ADR-RES ovarian
K-562 leukemia = test system: K-562 leukemia
HOP-92 NSCLC = test system: HOP-92 NSCLC
NCI-H226 lung = test system: NCI-H226 lung
RXF 393 renal = test system: RXF 393 renal
P388/ADR leukemia = test system: P388/ADR leukemia
IGROV1 ovarian = test system: IGROV1 ovarian
EKVX NSCLC = test system: EKVX NSCLC
SK-MEL-5 melanoma = test system: SK-MEL-5 melanoma
COLO 205 colon = test system: COLO 205 colon
U251 CNS = test system: U251 CNS
DMS 114 small cell lung = test system: DMS 114 small cell lung
MALME-3M melanoma = test system: MALME-3M melanoma
SNB-78 CNS = test system: SNB-78 CNS
OVCAR-4 ovarian = test system: OVCAR-4 ovarian
OVCAR-5 ovarian = test system: OVCAR-5 ovarian
CAKI-1 renal = test system: CAKI-1 renal
OVCAR-8 ovarian = test system: OVCAR-8 ovarian
P388 leukemia = test system: P388 leukemia
SK-OV-3 ovarian = test system: SK-OV-3 ovarian
SF-295 CNS = test system: SF-295 CNS
SNB-19 CNS = test system: SNB-19 CNS
HL-60(TB) leukemia = test system: HL-60(TB) leukemia
SK-MEL-28 melanoma = test system: SK-MEL-28 melanoma
MCF7 breast = test system: MCF7 breast
RPMI-8226 leukemia = test system: RPMI-8226 leukemia
UACC-257 melanoma = test system: UACC-257 melanoma
SF-268 CNS = test system: SF-268 CNS
M19-MEL melanoma = test system: M19-MEL melanoma
HCT-15 colon = test system: HCT-15 colon
NCI-H522 lung = test system: NCI-H522 lung
HCT-116 colon = test system: HCT-116 colon
HCC-2998 colon = test system: HCC-2998 colon
SK-MEL-2 melanoma = test system: SK-MEL-2 melanoma
UACC-62 melanoma = test system: UACC-62 melanoma
NCI-H460 lung = test system: NCI-H460 lung
CCRF-CEM leukemia = test system: CCRF-CEM leukemia
A549 NSCLC = test system: A549 NSCLC
HOP-62 NSCLC = test system: HOP-62 NSCLC
DLD-1 colon = test system: DLD-1 colon
LXFL 529 NSCLC = test system: LXFL 529 NSCLC
LOX IMVI melanoma = test system: LOX IMVI melanoma
RXF-631 renal = test system: RXF-631 renal
SN12C renal = test system: SN12C renal
M14 melanoma = test system: M14 melanoma
SW-620 colon = test system: SW-620 colon
ACHN renal = test system: ACHN renal
TK-10 renal = test system: TK-10 renal
SNB-75 CNS = test system: SNB-75 CNS
KM20L2 colon = test system: KM20L2 colon
SR leukemia = test system: SR leukemia
786-0 renal = test system: 786-0 renal
MOLT-4 leukemia = test system: MOLT-4 leukemia

COc1cc(C2c3cc4c(cc3[C@@H](Nc3cnc5ccccc5c3)C3COC(=O)[C@H]23)OCO4)cc(OC)c1O (some centres not stated)
TGI (KM12 colon): 2.67 µM | TGI (HT29 colon): 4.2 µM | TGI (SF-539 CNS): 0.82 µM | TGI (SN12K1 renal): 2.08 µM | TGI (OVCAR-3 ovarian): 3.9 µM | TGI (HOP-18 NSCLC): 2.65 µM | TGI (UO-31 renal): 3.3 µM | TGI (NCI-H23 lung): 2.02 µM | TGI (A498 renal): 1.38 µM | TGI (XF 498 CNS): 4.66 µM | TGI (DMS 273 small cell lung): 1.34 µM | TGI (NCI/ADR-RES ovarian): 7.93 µM | TGI (K-562 leukemia): 7.33 µM | TGI (HOP-92 NSCLC): 2.81 µM | TGI (NCI-H226 lung): 1.23 µM | TGI (RXF 393 renal): 3 µM | TGI (P388/ADR leukemia): 1.36 µM | TGI (IGROV1 ovarian): 10.4 µM | TGI (EKVX NSCLC): 9.09 µM | TGI (SK-MEL-5 melanoma): 1.78 µM | TGI (COLO 205 colon): 3.39 µM | TGI (U251 CNS): 0.6 µM | TGI (DMS 114 small cell lung): 1.82 µM | TGI (MALME-3M melanoma): 2.43 µM | TGI (SNB-78 CNS): > 100 µM | TGI (OVCAR-4 ovarian): 4.43 µM | TGI (OVCAR-5 ovarian): 2.25 µM | TGI (CAKI-1 renal): 1.78 µM | TGI (OVCAR-8 ovarian): 5 µM | TGI (P388 leukemia): 0.374 µM | TGI (SK-OV-3 ovarian): 6.18 µM | TGI (SF-295 CNS): 1.14 µM | TGI (SNB-19 CNS): 9.53 µM | TGI (HL-60(TB) leukemia): 0.377 µM | TGI (SK-MEL-28 melanoma): 3.85 µM | TGI (MCF7 breast): > 31.7 µM | TGI (RPMI-8226 leukemia): 1.9 µM | TGI (UACC-257 melanoma): 6.64 µM | TGI (SF-268 CNS): 3.9 µM | TGI (M19-MEL melanoma): 3.28 µM | TGI (HCT-15 colon): 1.31 µM | TGI (NCI-H522 lung): 3.19 µM | TGI (HCT-116 colon): 2.26 µM | TGI (HCC-2998 colon): 2.24 µM | TGI (SK-MEL-2 melanoma): 3.58 µM | TGI (UACC-62 melanoma): 2.06 µM | TGI (NCI-H460 lung): 0.397 µM | TGI (CCRF-CEM leukemia): 0.463 µM | TGI (A549 NSCLC): 0.789 µM | TGI (HOP-62 NSCLC): 0.481 µM | TGI (DLD-1 colon): 3.69 µM

CCCCCCCCCCCCNC(=S)OCCCC
TGI (KM12 colon): > 100 µM | TGI (HT29 colon): > 100 µM | TGI (SF-539 CNS): > 100 µM | TGI (HOP-18 NSCLC): > 100 µM | TGI (UO-31 renal): > 100 µM | TGI (NCI-H23 lung): > 100 µM | TGI (LXFL 529 NSCLC): > 100 µM | TGI (A498 renal): > 100 µM | TGI (XF 498 CNS): > 100 µM | TGI (DMS 273 small cell lung): > 100 µM | TGI (K-562 leukemia): > 100 µM | TGI (HOP-92 NSCLC): > 100 µM | TGI (LOX IMVI melanoma): 35.8 µM | TGI (RXF 393 renal): > 100 µM | TGI (IGROV1 ovarian): > 100 µM | TGI (EKVX NSCLC): > 100 µM | TGI (SK-MEL-5 melanoma): > 100 µM | TGI (U251 CNS): > 100 µM | TGI (DMS 114 small cell lung): > 100 µM | TGI (MALME-3M melanoma): > 100 µM | TGI (SNB-78 CNS): > 100 µM | TGI (RXF-631 renal): > 100 µM | TGI (SN12C renal): > 100 µM | TGI (OVCAR-4 ovarian): > 100 µM | TGI (M14 melanoma): > 100 µM | TGI (OVCAR-5 ovarian): > 100 µM | TGI (SW-620 colon): > 100 µM | TGI (CAKI-1 renal): > 100 µM | TGI (OVCAR-8 ovarian): > 100 µM | TGI (ACHN renal): > 100 µM | TGI (SK-OV-3 ovarian): > 100 µM | TGI (TK-10 renal): > 100 µM | TGI (SF-295 CNS): > 100 µM | TGI (SNB-19 CNS): > 100 µM | TGI (HL-60(TB) leukemia): 40.4 µM | TGI (SNB-75 CNS): > 100 µM | TGI (SK-MEL-28 melanoma): > 100 µM | TGI (RPMI-8226 leukemia): 51 µM | TGI (UACC-257 melanoma): > 100 µM | TGI (SF-268 CNS): > 100 µM | TGI (M19-MEL melanoma): > 100 µM | TGI (KM20L2 colon): > 100 µM | TGI (SR leukemia): > 100 µM | TGI (HCT-15 colon): > 100 µM | TGI (NCI-H522 lung): > 100 µM | TGI (786-0 renal): > 100 µM | TGI (HCT-116 colon): > 100 µM | TGI (HCC-2998 colon): > 100 µM | TGI (SK-MEL-2 melanoma): 62.2 µM | TGI (MOLT-4 leukemia): 52.4 µM | TGI (UACC-62 melanoma): > 100 µM | TGI (NCI-H460 lung): > 100 µM | TGI (CCRF-CEM leukemia): > 100 µM | TGI (A549 NSCLC): > 100 µM | TGI (HOP-62 NSCLC): > 100 µM | TGI (DLD-1 colon): > 100 µM
